Measurements published in patent publication US8592456B2 (4SC Discovery GmbH, priority 2011, dated 2013).

What follows are molecules tested on PBMC (T cell proliferation) (assay: T cell proliferation assay, PHA-stimulated human PBMC (BrdU ELISA)). Conditions: PHA-stimulated human PBMC, 48 hours, BrdU; column D; activity classes 1-4; read-out: IC50 (Tcell proliferation).
Assay type: cell-based
Outline: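 BrdU ELISA readout of proliferation at 48 hours. Cells: human PBMC from healthy donors in 10% dialyzed FCS/RPMI1640, 1×10^5 per well, activated by 2 μg/ml phytohaemagglutinin in the presence of compound.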

Compound | IC50
Fc1cccc(Cl)c1-c1noc(-c2cnn(-c3cccc(Cl)c3)c2C(F)(F)F)c1-c1ccco1 [IB-6, 3-(2-chloro-6-fluorophenyl)-5-(1-(3-chlorophenyl)-5-(trifluoromethyl)-1H-pyrazol-4-yl)-4-(furan-2-yl)isoxazole] | < 10 nM
Cc1nnc(-c2c(-c3c(F)cccc3Cl)noc2-c2cnn(-c3ccccn3)c2C(F)(F)F)s1 [IB-27, 3-(2-chloro-6-fluorophenyl)-4-(5-methyl-1,3,4-thiadiazol-2-yl)-5-(1-(pyridin-2-yl)-5-(trifluoromethyl)-1H-pyrazol-4-yl)isoxazole] | 10 to 100 nM
Fc1cccc(Cl)c1-c1noc(-c2cnn(-c3cccc(Cl)c3)c2C(F)(F)F)c1-c1ccoc1 [IB-7, 3-(2-chloro-6-fluorophenyl)-5-(1-(3-chlorophenyl)-5-(trifluoromethyl)-1H-pyrazol-4-yl)-4-(furan-3-yl)isoxazole] | < 10 nM
COc1cccc(Cl)c1-c1noc(-c2cnn(-c3ccccc3Cl)c2C(F)(F)F)c1-c1cnco1 [IB-34, 3-(2-chloro-6-methoxyphenyl)-5-(1-(2-chlorophenyl)-5-(trifluoromethyl)-1H-pyrazol-4-yl)-4-(oxazol-5-yl)isoxazole] | 100 to 1000 nM

Same assay, conditions: human PBMC, 2 μg/ml PHA, 48 hours, BrdU; read-out: D: IC50 (Tcell proliferation)

Compound | IC50
CCOC(=O)c1c(-c2c(F)cccc2Cl)noc1-c1cnn(-c2cccc(S(N)(=O)=O)c2)c1C(F)(F)F [Example B-43, ethyl 3-(2-chloro-6-fluorophenyl)-5-(1-(3-sulfamoylphenyl)-5-(trifluoromethyl)-1H-pyrazol-4-yl)-isoxazole-4-carboxylate] | 1000 to 10000 nM
COC(=O)c1c(-c2ccc(Cl)cc2Cl)noc1-c1cnn(-c2cccc(F)c2)c1C(F)(F)F [Example 111, methyl 3-(2,4-dichlorophenyl)-5-(1-(3-fluorophenyl)-5-(trifluoromethyl)-1H-pyrazol-4-y)isoxazole-4-carboxylate] | 100 to 1000 nM
Fc1ccccc1-n1ncc(-c2onc(-c3c(F)cccc3Cl)c2Br)c1C(F)(F)F [Example B-26, 4-bromo-3-(2-chloro-6-fluorophenyl)-5-(1-(2-fluorophenyl)-5-(trifluoromethyl)-1H-pyrazol-4-yl)isoxazole] | 1000 to 10000 nM
COC(=O)c1c(-c2c(F)cccc2Cl)noc1-c1cnn(-c2ccc(Cl)cc2Cl)c1C(F)(F)F [Example 7, methyl 3-(2-chloro-6-fluorophenyl)-5-(1-(2,4-dichlorophenyl)-5-(trifluoromethyl)-1H-pyrazol-4-yl)isoxazole-4-carboxylate] | 1000 to 10000 nM
CCOC(=O)c1c(-c2c(Cl)cccc2Cl)noc1-c1cnn(-c2cccc(Cl)c2)c1C(F)(F)F [Example B-45, ethyl 5-(1-(3-chlorophenyl)-5-(trifluoromethyl)-1H-pyrazol-4-yl)-3-(2,6-dichlorophenyl)-isoxazole-4-carboxylate] | < 10 nM
CCOC(=O)c1c(-c2c(F)cccc2Cl)noc1-c1cnn(-c2ccccc2C#N)c1C(F)(F)F [Example B-44, ethyl 3-(2-chloro-6-fluorophenyl)-5-(1-(2-cyanophenyl)-5-(trifluoromethyl)-1H-pyrazol-4-yl)-isoxazole-4-carboxylate] | 1000 to 10000 nM
CSC(=O)c1c(-c2c(F)cccc2Cl)noc1-c1cnn(-c2cccc(F)c2)c1C(F)(F)F [Example 128, S-methyl 3-(2-chloro-6-fluorophenyl)-5-(1-(3-fluorophenyl)-5-(trifluoromethyl)-1H-pyrazol-4-yl)isoxazole-4-carbothioate] | < 10 nM
O=C(c1c(-c2c(F)cccc2Cl)noc1-c1cnn(-c2ccccc2F)c1C(F)(F)F)N1CCOCC1 [Example 16, (3-(2-chloro-6-fluorophenyl)-5-(1-(2-fluorophenyl)-5-(trifluoromethyl)-1H-pyrazol-4-yl)isoxazol-4-yl)(morpholino)methanone] | 1000 to 10000 nM
CON(C)C(=O)c1c(-c2c(F)cccc2Cl)noc1-c1cnn(-c2ccccc2Cl)c1C(F)(F)F [Example B-51, 3-(2-chloro-6-fluorophenyl)-5-(1-(2-chlorophenyl)-5-(trifluoromethyl)-1H-pyrazol-4-yl)-N-methoxy-N-methylisoxazole-4-carboxamide] | 1000 to 10000 nM
COC(=O)c1c(-c2c(F)cccc2Cl)noc1-c1cnn(-c2cccc(F)c2)c1 [Example B-21, methyl 3-(2-chloro-6-fluorophenyl)-5-(1-(3-fluorophenyl)-1H-pyrazol-4-yl)isoxazole-4-carboxylate] | 100 to 1000 nM
O=C(O)c1c(-c2ccccc2Cl)noc1-c1cnn(-c2cccc(Cl)c2)c1C(F)(F)F [Example B-42, 3-(2-chlorophenyl)-5-(1-(3-chlorophenyl)-5-(trifluoromethyl)-1H-pyrazol-4-yl)-isoxazole-4-carboxylic acid] | 1000 to 10000 nM
CCOC(=O)c1c(-c2onc(-c3c(F)cccc3Cl)c2C(=O)OC)cnn1-c1ccccc1 [Example 34, methyl 3-(2-chloro-6-fluorophenyl)-5-(5-(ethoxycarbonyl)-1-phenyl-1Hpyrazol-4-yl)isoxazole-4-carboxylate] | 1000 to 10000 nM
CCOc1cc(-n2ncc(-c3onc(-c4c(F)cccc4Cl)c3C(=O)OC)c2C(F)(F)F)ncn1 [Example 116, methyl 3-(2-chloro-6-fluorophenyl)-5-(1-(6-ethoxypyrimidin-4-yl)-5-(trifluoromethyl)-1H-pyrazol-4-yl)isoxazole-4-carboxylate] | 1000 to 10000 nM
COC(=O)c1c(-c2c(F)cccc2Cl)noc1-c1cnn(-c2cc(C)nc(C)n2)c1C(F)(F)F [Example 119, methyl 3-(2-chloro-6-fluorophenyl)-5-(1-(2,6-dimethylpyrimidin-4-yl)-5-(trifluoromethyl)-1H-pyrazol-4-yl)isoxazole-4-carboxylate] | 100 to 1000 nM
CON(C)C(=O)c1c(-c2c(F)cccc2Cl)noc1-c1cnn(-c2ccccc2Br)c1C(F)(F)F [Example B-74, 5-(1-(2-bromophenyl)-5-(trifluoromethyl)-1H-pyrazol-4-yl)-3-(2-chloro-6-fluorophenyl)-N-methoxy-N-methylisoxazole-4-carboxamide] | 1000 to 10000 nM
COC(=O)c1c(-c2c(F)cccc2Cl)noc1-c1cnn(-c2ccccc2Cl)c1C(F)(F)F [Example B-20, methyl 3-(2-chloro-6-fluorophenyl)-5-(1-(2-chlorophenyl)-5-(trifluoromethyl)-1H-pyrazol-4-yl)isoxazole-4-carboxylate] | 1000 to 10000 nM
O=C(c1c(-c2c(F)cccc2Cl)noc1-c1cnn(-c2cccnc2)c1C(F)(F)F)N1CCCO1 [Example B-54, (3-(2-chloro-6-fluorophenyl)-5-(1-(pyridin-3-yl)-5-(trifluoromethyl)-1H-pyrazol-4-yl)isoxazol-4-yl)(isoxazolidin-2-yl)methanone] | 1000 to 10000 nM
COC(=O)c1c(-c2c(F)cccc2Cl)noc1-c1cnn(-c2ccccc2I)c1C(F)(F)F [Example 88, methyl 3-(2-chloro-6-fluorophenyl)-5-(1-(2-iodophenyl)-5-(trifluoromethyl)-1H-pyrazol-4-yl)isoxazole-4-carboxylate] | 1000 to 10000 nM
COC(=O)c1c(-c2c(F)cccc2Cl)noc1-c1cnn(-c2ccncc2)c1C(F)(F)F [Example B-69, methyl 3-(2-chloro-6-fluorophenyl)-5-(1-(pyridin-4-yl)-5-(trifluoromethyl)-1H-pyrazol-4-yl)isoxazole-4-carboxylate] | 10 to 100 nM
CCOC(=O)c1c(-c2onc(-c3c(F)cccc3Cl)c2C(=O)OC)cnn1-c1cc(F)cc(F)c1 [Example 39, methyl 3-(2-chloro-6-fluorophenyl)-5-(1-(3,5-difluorophenyl)-5-(ethoxycarbonyl)-1-H-pyrazol-4-yl)isoxazole-4-carboxylate] | 1000 to 10000 nM
CNC(=S)c1c(-c2c(F)cccc2Cl)noc1-c1cnn(-c2cccc(Cl)c2)c1C(F)(F)F [Example 72, 3-(2-chloro-6-fluorophenyl)-5-(1-(3-chlorophenyl)-5-(trifluoromethyl)-1H-pyrazol-4-yl)-N-methylisoxazole-4-carbothioamide] | 100 to 1000 nM
CCOC(=O)c1c(-c2c(F)cccc2Cl)noc1-c1cnn(-c2ccccc2Br)c1C(F)(F)F [Example B-72, ethyl 5-(1-(2-bromophenyl)-5-(trifluoromethyl)-1H-pyrazol-4-yl)-3-(2-chloro-6-fluorophenyl)isoxazole-4-carboxylate] | 100 to 1000 nM
CON(C)C(=O)c1c(-c2ccccc2F)noc1-c1cnn(-c2cccc(F)c2)c1C(F)(F)F [Example 94, 3-(2-fluorophenyl)-5-(1-(3-fluorophenyl)-5-(trifluoromethyl)-1H-pyrazol-4-yl)-N-methoxy-N-methylisoxazole-4-carboxamide] | 1000 to 10000 nM
COC(=O)c1c(-c2c(F)cccc2Cl)noc1-c1cnn(-c2c(Cl)cccc2Cl)c1C(F)(F)F [Example 70, methyl 3-(2-chloro-6-fluorophenyl)-5-(1-(2,6-dichlorophenyl)-5-(trifluoromethyl)-1H-pyrazol-4-yl)isoxazole-4-carboxylate] | 100 to 1000 nM
CCOC(=O)c1c(-c2c(Cl)cncc2Cl)noc1-c1cnn(-c2cccnc2)c1C(F)(F)F [Example B-12, ethyl 3-(3,5-dichloropyridin-4-yl)-5-(1-(pyridin-3-yl)-5-(trifluoromethyl)-1H-pyrazol-4-yl)isoxazole-4-carboxylate] | 100 to 1000 nM
CNC(=O)c1c(-c2c(F)cccc2Cl)noc1-c1cnn(-c2cccnc2)c1C(F)(F)F [Example B-55, 3-(2-chloro-6-fluorophenyl)-N-methyl-5-(1-(pyridin-3-yl)-5-(trifluoromethyl)-1H-pyrazol-4-yl)isoxazole-4-carboxamide] | 1000 to 10000 nM
CC(C)=NNC(=O)c1c(-c2c(F)cccc2Cl)noc1-c1cnn(-c2cccc(F)c2)c1 [Example B-29, 3-(2-chloro-6-fluorophenyl)-5-(1-(3-fluorophenyl)-1H-pyrazol-4-yl)-N′-(propan-2-ylidene)isoxazole-4-carbohydrazide] | 1000 to 10000 nM
